Target: Receptor-type tyrosine-protein phosphatase C (Homo sapiens) (UniProt P08575)
Assay: In vitro inhibitory activity against recombinant CD45 protein tyrosine phosphatase

Chain of Receptor-type tyrosine-protein phosphatase C (Homo sapiens) (P08575 whole entry, looked up): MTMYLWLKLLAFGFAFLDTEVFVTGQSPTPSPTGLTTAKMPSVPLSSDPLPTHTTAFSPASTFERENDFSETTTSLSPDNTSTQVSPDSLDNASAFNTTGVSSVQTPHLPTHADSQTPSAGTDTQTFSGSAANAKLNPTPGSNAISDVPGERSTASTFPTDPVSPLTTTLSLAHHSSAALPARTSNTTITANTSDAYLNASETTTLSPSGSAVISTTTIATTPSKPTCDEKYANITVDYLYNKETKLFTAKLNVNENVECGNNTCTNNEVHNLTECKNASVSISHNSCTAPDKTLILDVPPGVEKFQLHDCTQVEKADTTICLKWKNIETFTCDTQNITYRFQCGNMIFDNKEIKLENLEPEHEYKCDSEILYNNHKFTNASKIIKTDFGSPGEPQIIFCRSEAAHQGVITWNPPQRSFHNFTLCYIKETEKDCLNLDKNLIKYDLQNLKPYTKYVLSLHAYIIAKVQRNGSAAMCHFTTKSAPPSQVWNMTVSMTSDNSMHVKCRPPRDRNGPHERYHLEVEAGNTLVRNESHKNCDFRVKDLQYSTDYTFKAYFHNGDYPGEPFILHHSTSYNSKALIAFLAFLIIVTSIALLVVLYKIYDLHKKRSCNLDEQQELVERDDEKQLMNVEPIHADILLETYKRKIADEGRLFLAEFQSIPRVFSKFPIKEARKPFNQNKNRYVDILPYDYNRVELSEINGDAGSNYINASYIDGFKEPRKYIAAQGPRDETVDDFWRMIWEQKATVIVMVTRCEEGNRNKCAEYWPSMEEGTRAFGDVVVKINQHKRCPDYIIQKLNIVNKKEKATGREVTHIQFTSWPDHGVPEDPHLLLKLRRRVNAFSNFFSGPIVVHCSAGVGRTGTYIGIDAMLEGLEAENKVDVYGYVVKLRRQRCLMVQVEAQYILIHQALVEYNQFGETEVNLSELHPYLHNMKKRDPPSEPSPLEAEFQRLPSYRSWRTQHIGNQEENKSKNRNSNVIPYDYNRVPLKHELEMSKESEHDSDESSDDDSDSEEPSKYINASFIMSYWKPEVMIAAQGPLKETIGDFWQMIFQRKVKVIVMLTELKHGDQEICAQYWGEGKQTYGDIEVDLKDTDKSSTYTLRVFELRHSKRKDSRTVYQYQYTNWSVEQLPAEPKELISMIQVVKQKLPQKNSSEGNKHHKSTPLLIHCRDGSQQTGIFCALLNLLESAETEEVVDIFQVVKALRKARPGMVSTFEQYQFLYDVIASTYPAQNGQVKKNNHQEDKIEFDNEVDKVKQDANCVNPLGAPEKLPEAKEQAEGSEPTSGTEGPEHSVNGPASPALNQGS

Structure (SMILES)	IC50 [µM]
COc1cc2c(cc1OC)-c1c(OC)c(OC)cc3c1[C@H](C2)N(C)CC3	88
CN1CCc2cc3c(c4c2C1Cc1ccccc1-4)OCO3 (stereo not given) [7-Methyl-6,7,7a,8-tetrahydro-5H-benzo[g][1,3]dioxolo[4',5':4,5]benzo[1,2,3-de]quinoline]	107
c1ccc2c(c1)C[C@H]1NCCc3cc4c(c-2c31)OCO4 [(-)-anonaine]	17
COc1cc2c3c(c1OC)-c1ccccc1C[C@@H]3NCC2 [(S)-1,2-Dimethoxy-5,6,6a,7-tetrahydro-4H-dibenzo[de,g]quinoline]	5.3
O=C1c2ccccc2-c2c3c(cc4ccnc1c24)OCO3 [Liriodenine]	182
